One test deals with HLA B*1503 (Homo sapiens, UniProt P01889, A329T/A93T/A95T/C349S/D201E/D98Y/E187L/E204Q/K202T/N87E/Q94N/R155S/R180L/S121R/S35A/V306I/V36M/Y140S/Y91S). Nature of the test: biochemical. It counts as binding.
A further test concerns the target HLA B*1501 (Homo sapiens, UniProt P01889, A329T/A93T/A95T/C349S/D201E/D98Y/E187L/E204Q/E69M/E70A/K202T/N87E/Q94N/R155S/R180W/S121R/S35A/S48A/V306I/V36M/Y140S/Y91S). In words: biochemical. It counts as binding.

The record followed here is publication PMC2248166, “Quantitative peptide binding motifs for 19 human and mouse MHC class I molecules derived using positional scanning combinatorial peptide libraries” (Immunome Research, 2008).

Molecules are shown by their SMILES. Where a SMILES comes first, the peptide text is derived from it.

The term IC50 denotes the concentration that inhibits the measured activity by half. Read a low IC50 as greater potency. Regarding `CC(C)C[C@H](NC(=O)[C@H](Cc1ccccc1)NC(=O)[C@@H](NC(=O)[C@H](CCCCN)NC(=O)[C@H](CO)NC(=O)[C@@H](N)CO)C(C)C)C(=O)N[C@@H](CCCCN)C(=O)N[C@@H](C)C(=O)N[C@@H](Cc1ccccc1)C(=O)O` [3102.0662] (H-SSKVFLKAF-OH), the results for the half-inhibitory concentration (IC50) at HLA B*1503 and against HLA B*1501 were 0.37 nM and 1.7 nM, respectively.
For `CC[C@H](C)[C@H](NC(=O)[C@H](CO)NC(=O)[C@@H](N)Cc1c[nH]c2ccccc12)C(=O)N[C@@H](Cc1ccc(O)cc1)C(=O)N[C@@H](CC(C)C)C(=O)N[C@@H](CO)C(=O)N[C@@H](CC(C)C)C(=O)N[C@@H](Cc1c[nH]cn1)C(=O)N[C@@H](Cc1ccc(O)cc1)C(=O)O` [3102.0867] (H-WSIYLSLHY-OH) the same measures were 8.9 nM and 48 nM.
As for `CC(C)C[C@H](NC(=O)[C@H](C)NC(=O)[C@@H](NC(=O)[C@H](Cc1ccccc1)NC(=O)[C@H](CS)NC(=O)[C@H](Cc1ccccc1)NC(=O)[C@H](Cc1ccc(O)cc1)NC(=O)[C@@H](NC(=O)[C@@H](N)CC(C)C)[C@@H](C)O)C(C)C)C(=O)O` [3102.1028] (H-LTYFCFVAL-OH), the IC50 against HLA B*1501 was 29 nM.
For `CC[C@H](C)[C@H](NC(=O)[C@H](CO)NC(=O)[C@@H](N)CC(C)C)C(=O)N[C@@H](CC(N)=O)C(=O)N[C@@H](CO)C(=O)N[C@@H](CO)C(=O)N[C@@H](Cc1ccccc1)C(=O)N[C@@H](Cc1ccc(O)cc1)C(=O)N[C@@H](Cc1ccccc1)C(=O)O` [3102.1034] (H-LSINSSFYF-OH), the IC50 on HLA B*1503 was 4.8 nM; against HLA B*1501 it was 1 nM.
On HLA B*1501, `CC[C@H](C)[C@H](NC(=O)[C@H](CO)NC(=O)[C@H](CC(C)C)NC(=O)[C@H](CC(C)C)NC(=O)[C@@H](N)CC(C)C)C(=O)N[C@@H](CC(N)=O)C(=O)N[C@@H](CO)C(=O)N[C@@H](CO)C(=O)N[C@@H](Cc1ccccc1)C(=O)O` [3102.1035] (H-LLLSINSSF-OH) showed a half-inhibitory concentration (IC50) of 0.88 nM.
Same read-out and setting: the value for `CC[C@H](C)[C@H](NC(=O)[C@@H](N)CCSC)C(=O)N[C@@H](CCCCN)C(=O)N[C@@H](CC(N)=O)C(=O)N[C@@H](CC(C)C)C(=O)N[C@H](C(=O)N[C@@H](CCC(N)=O)C(=O)N[C@@H](CC(C)C)C(=O)N[C@@H](Cc1ccccc1)C(=O)O)[C@@H](C)O` [3102.1037] (H-MIKNLTQLF-OH) was 5.7 nM; that for `CSCC[C@H](NC(=O)[C@H](C)NC(=O)[C@@H]1CCCN1C(=O)[C@@H](NC(=O)[C@H](Cc1ccc(O)cc1)NC(=O)[C@H](C)NC(=O)[C@H](CCCCN)NC(=O)[C@H](CCC(N)=O)NC(=O)[C@@H](N)CCC(=O)O)C(C)C)C(=O)O` [3102.1038] (H-EQKAYVPAM-OH) was 0.77 nM; that for `CC[C@H](C)[C@H](NC(=O)[C@H](CC(N)=O)NC(=O)[C@H](CC(N)=O)NC(=O)[C@@H](NC(=O)[C@@H](N)CO)[C@@H](C)CC)C(=O)N[C@@H](CC(=O)O)C(=O)N1CCC[C@H]1C(=O)N[C@@H](Cc1c[nH]cn1)C(=O)N[C@@H](Cc1ccccc1)C(=O)O` [3102.1039] (H-SINNIDPHF-OH) was 12 nM.
For the molecule `CC[C@H](C)[C@H](NC(=O)[C@H](Cc1ccc(O)cc1)NC(=O)[C@@H](NC(=O)[C@H](CC(N)=O)NC(=O)[C@H](CCC(=O)O)NC(=O)[C@@H](N)CCSC)C(C)C)C(=O)N[C@@H](CO)C(=O)N[C@@H](CO)C(=O)N[C@@H](Cc1ccc(O)cc1)C(=O)O` [3102.1042] (H-MENVYISSY-OH), on HLA B*1501, the 50% inhibitory concentration (IC50) was found to be 2 nM.
The same measure, in the same setting: the value for `CC[C@H](C)[C@H](NC(=O)[C@H](CC(N)=O)NC(=O)[C@H](C)NC(=O)[C@@H](NC(=O)[C@@H](N)CC(C)C)[C@@H](C)CC)C(=O)N[C@@H](Cc1c[nH]cn1)C(=O)N[C@@H](CC(N)=O)C(=O)N[C@@H](Cc1c[nH]cn1)C(=O)N[C@@H](CCSC)C(=O)O` [3102.1046] (H-LIANIHNHM-OH) was 0.67 nM.
Take `CC(C)C[C@H](NC(=O)[C@@H](NC(=O)[C@H](CO)NC(=O)[C@@H](NC(=O)[C@H](CC(N)=O)NC(=O)[C@H](CC(C)C)NC(=O)[C@@H](N)CO)[C@@H](C)O)[C@@H](C)O)C(=O)NCC(=O)N[C@@H](Cc1ccccc1)C(=O)O` [3102.1051] (H-SLNTSTLGF-OH): the results for the IC50 against HLA B*1503 and at HLA B*1501 were 13 nM and 1.7 nM, respectively.
In turn, `CSCC[C@H](NC(=O)[C@H](CCC(N)=O)NC(=O)[C@H](CCC(N)=O)NC(=O)[C@@H](NC(=O)[C@H](CCC(=O)O)NC(=O)[C@@H]1CCCN1C(=O)[C@H](CO)NC(=O)[C@H](CO)NC(=O)[C@@H](N)CCCCN)[C@@H](C)O)C(=O)O` [3102.1065] (H-KSSPETQQM-OH) registered an IC50 against HLA B*1501 of 30 nM.
`CC[C@H](C)[C@H](NC(=O)[C@H](Cc1c[nH]cn1)NC(=O)[C@H](CO)NC(=O)[C@@H](NC(=O)[C@@H](NC(=O)[C@H](Cc1ccc(O)cc1)NC(=O)[C@H](C)NC(=O)[C@H](CCSC)NC(=O)[C@@H](N)Cc1ccccc1)[C@@H](C)O)[C@@H](C)O)C(=O)O` [3102.1071] (H-FMAYTTSHI-OH): the values for the concentration for half-maximal inhibition (IC50) against HLA B*1503 and at HLA B*1501 were 7.6 nM and 133 nM, respectively.
Taken in the same sequence, the figures for `CC[C@H](C)[C@H](N)C(=O)N[C@@H](CO)C(=O)N[C@H](C(=O)N[C@@H](CC(C)C)C(=O)N[C@H](C(=O)NCC(=O)N[C@@H](CO)C(=O)N[C@@H](CO)C(=O)N[C@H](C(=O)O)[C@@H](C)CC)[C@@H](C)O)C(C)C` [3102.1072] (H-ISVLTGSSI-OH) were 25 nM and 34 nM.
Take `CC(C)C[C@H](NC(=O)[C@@H](N)CCCNC(=N)N)C(=O)N[C@@H](CC(N)=O)C(=O)N1CCC[C@H]1C(=O)N[C@@H](CCC(=O)O)C(=O)N[C@H](C(=O)N[C@@H](CO)C(=O)N[C@@H](Cc1ccc(O)cc1)C(=O)N[C@@H](Cc1ccccc1)C(=O)O)C(C)C` [3102.1097] (H-RLNPEVSYF-OH): the IC50 against HLA B*1503 was 0.32 nM; on HLA B*1501, 0.3 nM.
For `CC[C@H](C)[C@H](NC(=O)[C@H](CCC(N)=O)NC(=O)[C@@H](N)CO)C(=O)N[C@H](C(=O)N[C@H](C(=O)N[C@@H](CC(C)C)C(=O)N[C@H](C(=O)N[C@@H](C)C(=O)N[C@@H](Cc1ccccc1)C(=O)O)[C@@H](C)O)[C@@H](C)O)[C@@H](C)CC` [3102.1111] (H-SQIITLTAF-OH) the same measures were 0.79 nM and 1 nM.
With `CC(C)[C@H](NC(=O)[C@H](CCC(N)=O)NC(=O)[C@@H](N)CO)C(=O)N[C@@H](CCCCN)C(=O)N[C@@H](CS)C(=O)N[C@@H](CS)C(=O)N[C@@H](Cc1c[nH]cn1)C(=O)N[C@@H](Cc1ccc(O)cc1)C(=O)N[C@@H](Cc1ccccc1)C(=O)O` [3102.1126] (H-SQVKCCHYF-OH), the IC50 against HLA B*1503 and at HLA B*1501 was 0.92 nM in each case.
As for `CSCC[C@H](NC(=O)[C@@H](N)C(C)C)C(=O)N[C@H](C(=O)N[C@H](C(=O)N[C@@H](CO)C(=O)N[C@@H](CCCCN)C(=O)N1CCC[C@H]1C(=O)N[C@@H](CC(C)C)C(=O)N[C@@H](Cc1ccccc1)C(=O)O)[C@@H](C)O)C(C)C` [3102.1148] (H-VMVTSKPLF-OH), the IC50 was 8.8 nM against HLA B*1503 and 16 nM at HLA B*1501.
For `CSCC[C@H](NC(=O)[C@H](CO)NC(=O)[C@H](CCSC)NC(=O)[C@@H](N)CCSC)C(=O)N[C@@H](Cc1ccc(O)cc1)C(=O)NCC(=O)N[C@@H](CCCCN)C(=O)N[C@@H](C)C(=O)N[C@@H](Cc1ccccc1)C(=O)O` [3102.1173] (H-MMSMYGKAF-OH) the same measures were 2.6 nM and 3.2 nM.
For `CC(C)C[C@H](NC(=O)[C@H](CC(C)C)NC(=O)[C@@H](NC(=O)[C@H](CO)NC(=O)[C@H](Cc1ccc(O)cc1)NC(=O)[C@H](CC(C)C)NC(=O)[C@@H](N)CCC(N)=O)[C@@H](C)O)C(=O)N[C@@H](CO)C(=O)N[C@@H](Cc1ccccc1)C(=O)O` [3102.1175] (H-QLYSTLLSF-OH) the same measures were 0.57 nM and 3 nM.
Taken in the same sequence, the figures for `CSCC[C@H](NC(=O)[C@H](Cc1ccc(O)cc1)NC(=O)[C@H](CCCCN)NC(=O)[C@H](CO)NC(=O)[C@H](Cc1ccccc1)NC(=O)[C@H](C)NC(=O)[C@@H](N)Cc1ccc(O)cc1)C(=O)N[C@@H](CO)C(=O)N[C@@H](Cc1ccccc1)C(=O)O` [3102.1180] (H-YAFSKYMSF-OH) were 1.8 nM and 9 nM.
`CC[C@H](C)[C@H](NC(=O)[C@H](CO)NC(=O)[C@H](CC(C)C)NC(=O)CNC(=O)[C@H](CCC(=O)O)NC(=O)[C@H](CO)NC(=O)[C@H](Cc1ccc(O)cc1)NC(=O)[C@H](CC(C)C)NC(=O)[C@@H](N)CCCNC(=N)N)C(=O)O` [3102.1232] (H-RLYSEGLSI-OH) came in with a half-maximal inhibitory concentration (IC50) against HLA B*1501 of 4.5 nM.
On the same count and under the same terms, for `CC(C)C[C@H](NC(=O)[C@H](CCC(=O)O)NC(=O)[C@@H]1CCCN1C(=O)[C@@H](NC(=O)[C@H](Cc1ccc(O)cc1)NC(=O)[C@@H](NC(=O)[C@@H](N)Cc1ccccc1)C(C)C)C(C)C)C(=O)N[C@@H](CO)C(=O)N[C@@H](Cc1ccccc1)C(=O)O` [3102.1280] (H-FVYVPELSF-OH) the value was 0.96 nM.
As to `CSCC[C@H](N)C(=O)N[C@@H](CO)C(=O)N[C@@H](CO)C(=O)N[C@@H](CO)C(=O)N[C@@H](CCC(N)=O)C(=O)N[C@@H](CC(=O)O)C(=O)N[C@@H](CC(C)C)C(=O)N[C@@H](CO)C(=O)N[C@@H](Cc1ccccc1)C(=O)O` [3102.1286] (H-MSSSQDLSF-OH), inhibition on HLA B*1501 was half-maximal at 16 nM (IC50).
On the same count and under the same terms, the value for `CC[C@H](C)[C@H](NC(=O)[C@@H](N)Cc1ccccc1)C(=O)N[C@@H](CC(N)=O)C(=O)N[C@@H](CCSC)C(=O)N[C@H](C(=O)NCC(=O)N[C@@H](CC(N)=O)C(=O)N[C@@H](Cc1c[nH]cn1)C(=O)N[C@@H](Cc1ccccc1)C(=O)O)[C@@H](C)O` [3102.1288] (H-FINMTGNHF-OH) was 16 nM; that for `CC[C@H](C)[C@H](NC(=O)[C@H](C)NC(=O)[C@H](CCSC)NC(=O)[C@@H](NC(=O)[C@@H](NC(=O)[C@@H](N)C(C)C)[C@@H](C)CC)[C@@H](C)CC)C(=O)N[C@@H](CC(N)=O)C(=O)N[C@H](C(=O)N[C@@H](Cc1ccccc1)C(=O)O)C(C)C` [3102.1303] (H-VIIMAINVF-OH) was 26 nM.
